Assays:
Test in all cases: In vitro assay of antibacterial activity (agar dilution MIC)
Type in all cases: cell-based
[1] = tested on: Staphylococcus aureus NCTC 10649M; conditions: code EE = Staphylococcus aureus NCTC 10649M; BHI agar, 35-37 °C, 20 to 24 hours; unit assumed
Method: (§1) Representative compounds of the present invention were assayed in vitro for antibacterial activity as follows: Twelve petri dishes containing successive aqueous dilutions of the test compound mixed with 10 mL of sterilized Brain Heart Infusion (BHI) agar (Difco 0418-01-5) were prepared. Each plate was inoculated with 1:100 (or 1:10 for slow-growing strains, such as Micrococcus and Streptococcus) dilutions of up to 32 different microorganisms, using a Steers replicator block. The inoculated plates were incubated at 35-37 °C for 20 to 24 hours. In addition, a control plate, using BHI agar containing no test compound, was prepared and incubated at the beginning and end of each test.
(§2) An additional plate containing a compound having known susceptibility patterns for the organisms being tested and belonging to the same antibiotic class as the test compound was also prepared and incubated as a further control, as well as to provide test-to-test comparability. Erythromycin A was used for this purpose.
(§3) After incubation, each plate was visually inspected. The minimum inhibitory concentration (MIC) was defined as the lowest concentration of drug yielding no growth, a slight haze, or sparsely isolated colonies on the inoculum spot as compared to the growth control.

[2] = tested on: Streptococcus pyogenes 930; conditions: code MM = Streptococcus pyogenes 930; BHI agar, 35-37 °C, 20 to 24 hours; unit assumed
Method: as §1, §2, §3

[3] = tested on: Streptococcus Pneumonia ATCC 6303; conditions: code XX = Streptococcus Pneumonia ATCC 6303; BHI agar, 35-37 °C, 20 to 24 hours; unit assumed
Method: as §1, §2, §3

[4] = tested on: Staphylococcus epidermidis 3519; conditions: code HH = Staphylococcus epidermidis 3519; BHI agar, 35-37 °C, 20 to 24 hours; unit assumed
Method: as §1, §2, §3

[5] = tested on: Streptococcus Pneumonia GYR 1171; conditions: code YY = Streptococcus Pneumonia GYR 1171; BHI agar, 35-37 °C, 20 to 24 hours; unit assumed
Method: as §1, §2, §3

Escherichiacoli SS = conditions: code RR = Escherichiacoli SS; BHI agar, 35-37 °C, 20 to 24 hours; unit assumed
Method: as §1, §2, §3

[6] = tested on: Streptococcus bovis A-5169; conditions: code JJ = Streptococcus bovis A-5169; BHI agar, 35-37 °C, 20 to 24 hours; unit assumed
Method: as §1, §2, §3

[7] = tested on: Mycobacterium smegmatis ATCC 114; conditions: code UU = Mycobacterium smegmatis ATCC 114; BHI agar, 35-37 °C, 20 to 24 hours; unit assumed
Method: as §1, §2, §3

[8] = tested on: Haemophilislnfluenzae DILL AMP R; conditions: code WW = Haemophilislnfluenzae DILL AMP R; BHI agar, 35-37 °C, 20 to 24 hours; unit assumed
Method: as §1, §2, §3

[9] = tested on: Micrococcusluteus ATCC 4698; conditions: code PP = Micrococcusluteus ATCC 4698; BHI agar, 35-37 °C, 20 to 24 hours; unit assumed
Method: as §1, §2, §3

[10] = tested on: Streptococcus pyogenes EES61; conditions: code LL = Streptococcus pyogenes EES61; BHI agar, 35-37 °C, 20 to 24 hours; unit assumed
Method: as §1, §2, §3

[11] = tested on: Staphylococcus aureus 1775; conditions: code GG = Staphylococcus aureus 1775; BHI agar, 35-37 °C, 20 to 24 hours; unit assumed
Method: as §1, §2, §3

[12] = tested on: Staphylococcus aureus A-5278; conditions: code CC = Staphylococcus aureus A-5278; BHI agar, 35-37 °C, 20 to 24 hours; unit assumed
Method: as §1, §2, §3

[13] = tested on: Staphylococcus aureus ATCC 6538P; conditions: code AA = Staphylococcus aureus ATCC 6538P; BHI agar, 35-37 °C, 20 to 24 hours; unit assumed
Method: as §1, §2, §3

[14] = tested on: Streptococcus pyogenes PIU 2548; conditions: code NN = Streptococcus pyogenes PIU 2548; BHI agar, 35-37 °C, 20 to 24 hours; unit assumed
Method: as §1, §2, §3

[15] = tested on: Streptococcus Pneumonia 5649; conditions: code ZA = Streptococcus Pneumonia 5649; BHI agar, 35-37 °C, 20 to 24 hours; unit assumed
Method: as §1, §2, §3

Candida albicans CCH 442 = conditions: code TT = Candida albicans CCH 442; BHI agar, 35-37 °C, 20 to 24 hours; unit assumed
Method: as §1, §2, §3

[16] = tested on: Staphylococcus aureus A-5177; conditions: code BB = Staphylococcus aureus A-5177; BHI agar, 35-37 °C, 20 to 24 hours; unit assumed
Method: as §1, §2, §3

Escherichiacoli JUHL = conditions: code QQ = Escherichiacoli JUHL; BHI agar, 35-37 °C, 20 to 24 hours; unit assumed
Method: as §1, §2, §3

[17] = tested on: Streptococcus agalactiae CMX 508; conditions: code KK = Streptococcus agalactiae CMX 508; BHI agar, 35-37 °C, 20 to 24 hours; unit assumed
Method: as §1, §2, §3

[18] = tested on: Nocardia Asteroides ATCC 99700; conditions: code VV = Nocardia Asteroides ATCC 99700; BHI agar, 35-37 °C, 20 to 24 hours; unit assumed
Method: as §1, §2, §3

[19] = tested on: Streptococcus Pneumonia 5979; conditions: code ZZ = Streptococcus Pneumonia 5979; BHI agar, 35-37 °C, 20 to 24 hours; unit assumed
Method: as §1
An additional plate containing a compound having known susceptibility patterns for the organisms being tested and belonging to the same antibiotic class as the test compound was also prepared and incubated as a further control, as well as to provide test-to-test comparability.
as §3

Structure (SMILES) | Antibacterial Activity (MIC's) [1] [µg/mL] | Antibacterial Activity (MIC's) [2] [µg/mL] | Antibacterial Activity (MIC's) [3] [µg/mL] | Antibacterial Activity (MIC's) [4] [µg/mL] | Antibacterial Activity (MIC's) [5] [µg/mL] | Antibacterial Activity (MIC's) (Escherichiacoli SS) [µg/mL] | Antibacterial Activity (MIC's) [6] [µg/mL] | Antibacterial Activity (MIC's) [7] [µg/mL] | Antibacterial Activity (MIC's) [8] [µg/mL] | Antibacterial Activity (MIC's) [9] [µg/mL] | Antibacterial Activity (MIC's) [10] [µg/mL] | Antibacterial Activity (MIC's) [11] [µg/mL] | Antibacterial Activity (MIC's) [12] [µg/mL] | Antibacterial Activity (MIC's) [13] [µg/mL] | Antibacterial Activity (MIC's) [14] [µg/mL] | Antibacterial Activity (MIC's) [15] [µg/mL] | Antibacterial Activity (MIC's) (Candida albicans CCH 442) [µg/mL] | Antibacterial Activity (MIC's) [16] [µg/mL] | Antibacterial Activity (MIC's) (Escherichiacoli JUHL) [µg/mL] | Antibacterial Activity (MIC's) [17] [µg/mL] | also measured
CC[C@H]1OC(=O)[C@H](C)[C@@H](O[C@H]2C[C@@](C)(OC)[C@@H](O)[C@H](C)O2)[C@H](C)[C@@H](O[C@@H]2O[C@H](C)C[C@H](N(C)C)[C@H]2O)[C@](C)(O)C[C@@H](C)C(=O)[C@H](C)[C@@H](O)[C@]1(C)O [Ery. A standard, Erythromycin A, reference compound] | 0.39 | > 100 | 0.06 | 0.39 | 0.06 | 0.78 | 0.02 | 3.1 | 4 | 0.2 | 0.05 | > 100 | > 100 | 0.2 | 6.2 | 16 | > 100 | 3.1 | > 100 | 0.05 | Antibacterial Activity (MIC's) [18]: 0.1 µg/mL
C=CCO[C@]1(C)C[C@@H](C)CN[C@H](C)[C@@H](O)[C@](C)(O)[C@@H](CC)OC(=O)[C@H](C)[C@@H](O[C@H]2C[C@@](C)(OC)[C@@H](O)[C@H](C)O2)[C@H](C)[C@H]1O[C@@H]1O[C@H](C)C[C@H](N(C)C)[C@H]1O [Example 2] | 0.39 | > 100 | 0.06 | 0.2 | 0.06 | 0.78 | 0.02 | 6.2 | 8 | 0.39 | 0.05 | > 100 | > 100 | 0.2 | 6.2 | 16 | > 100 | 12.5 | 50 | 0.05 | Antibacterial Activity (MIC's) [19]: > 128 µg/mL; Antibacterial Activity (MIC's) [18]: 0.1 µg/mL
